In article PMC3913620, “Preclinical Evaluation of the Novel, Orally Bioavailable Selective Inhibitor of Nuclear Export (SINE) KPT-335 in Spontaneous Canine Cancer: Results of a Phase I Study” (PLoS ONE, 2014):
Several values for one entry are separate records, joined by “and”; a condition that tells them apart may be missing. Equal entries are not always repeated.

Key:
[1] = Single oral dose pharmacokinetics in healthy dogs; type: in vivo; details: male, beagle, dog, plasma, 1.5 mg/kg single oral dose, fed, 6 dogs
Method: KPT-335 was administered as a single oral dose in capsule formulation to 6 male beagle dogs at approximately 1.5 mg/kg following a meal. Serial blood samples were collected from each dog prior to dosing and at 0.25, 0.5, 1, 2, 4, 6, 8, 12, 18, 24 and 48 hours post-dose and placed into tubes containing K2EDTA. Blood samples were stored on wet ice until processed to plasma by centrifugation at 3500 rpm for 10 minutes at 5°C. Plasma samples were stored in at −80°C until analysis at Agilux Laboratories (Worcester, MA). Plasma samples were analyzed for parent drug concentration using sample preparation by protein precipitation and then analysis by LC-MS/MS using propranolol as the internal standard. The method was qualified for use (a single batch to assess method performance: precision and accuracy; linearity of dilution; and matrix specificity) prior to initiation of sample analysis. Acceptance criteria for calibration standards and quality control samples were within ±30% nominal concentration. Individual animal pharmacokinetic parameter values were derived by the pharmacokinetic analysis program Phoenix WinNonlin version 6.3 (Pharsight Corporation), using the non-compartmental Model 200 with uniform weighting. The single-dose pharmacokinetic parameters assessed include: Cmax (maximum concentration observed); Tmax (time of observed maximum concentration); AUC0→∞ (area under the concentration-time curve from time zero extrapolated to infinity); AUC0→last (area under the concentration-time curve from time zero to the time of the last quantifiable concentration); and t1/2 (terminal half life). Descriptive statistical data (mean, standard deviation, and standard error of the mean) were calculated from the unrounded numbers in an Excel (Microsoft) spreadsheet. Concentration results, means, and calculated parameters were reported to 3 significant figures.

[2] = system: dogs with spontaneous cancer (NHL, mast cell tumor, osteosarcoma); assay: Phase I dose escalation study, tumor response; type: in vivo
Method: This study was a Phase I dose escalating, open label assessment of the safety and biologic activity of KPT-335 in client owned dogs with spontaneous malignancies. Assessment of clinical toxicities and tumor response was performed at each visit. Dogs were evaluated for hematologic and biochemical toxicities every 7 days with routine bloodwork. The initial dose of 1 mg/kg orally twice per week (Monday/Thursday or Tuesday/Friday) was based on previous data from normal laboratory dogs (data not shown) and dose escalation was set at 0.25 mg/kg increments in cohorts of 3 until dose limiting toxicity (DLT) was identified. The DLT was considered to be any grade 3 or 4 hematologic or non-hematologic toxicity based on the established VCOG-CTCAE criteria. […] Disease progression or signs and symptoms definitely related to disease were not considered adverse events (AEs). The maximum tolerated dose (MTD) was considered to be one dose below that at which DLT occurred.
Tumor assessments were completed prior to study entry, and days 7, 14, 21, and 28. For dogs that continued beyond 4 weeks, response assessments were performed every 2 weeks thereafter, or at the time of suspected tumor progression. Responses were assessed by the investigator according to pre-defined protocol criteria. The response in dogs with assessable disease was performed by clinical examination, ultrasonography, or thoracic radiography. Many lesions were not amenable for quantitative radiographic imaging, but were followed either by serial clinical examination (superficial lesions; palpable lymph nodes) or by ultrasonography (abdominal lymph nodes). Thoracic lesions were assessed by thoracic radiography.
The response in dogs with measurable disease was judged by the investigator on the basis of Response Evaluation Criteria for Peripheral Nodal Lymphoma in dogs (v1.0). A complete response (CR) was defined as disappearance of all disease on two measurements separated by a minimum period of 3 weeks. A partial response (PR) was defined as greater than 30% reduction in the sum of the longest diameter of the target lesions documented by two assessments separated by at least 3 weeks. An increase of >20% in the size of all measurable tumor areas as measured by the sum of longest diameters of the target lesions taken as reference the smallest sum since initiation of therapy, or the appearance of any new lesion(s) would qualify as progressive disease (PD). […] Dogs who had no evidence of tumor progression and who had not experienced any unacceptable toxicity were eligible for extended treatment cycles. Dose escalation from twice per week administration to three times per week administration in an individual dog was permitted if the dog was tolerating therapy.

O=C(/C=C\n1cnc(-c2cc(C(F)(F)F)cc(C(F)(F)F)c2)n1)NNc1ccccn1 [KPT-335]
Cmax ([1]; po, 1.5 mg/kg, capsule): ~250 ng/mL | Tmax ([1]; po, 1.5 mg/kg, capsule): ~4 h | AUC [1]: 1800 ng·h/mL | AUC(0-inf) ([1]; capsule): 1810 ng·h/mL | AUC(0-t) ([1]; capsule, read-out: AUC0-last, mean): 1760 ng·h/mL | half-life ([1]; capsule, read-out: t1/2, mean (converted)): 3.88 h | clinical benefit (CB: PR or SD >4 weeks), dogs with NHL [2]: 9/14 | clinical benefit, dogs with NHL [2]: 64% | duration of PR, individual dogs [2]: 71 days and 246 days | median TTP, responding dogs with NHL [2]: 66 days | median duration of treatment, dogs with NHL [2]: 10 weeks | range of duration of treatment, dogs with NHL [2]: 5–35 weeks | median duration of SD ([2]; 8 dogs with SD): 58.5 days | range of duration of SD ([2]; 8 dogs with SD): 28 to 84 days | TTP range, all dogs ([2]; 17 dogs): 14 to 246 days | dogs with PD in the first 4 weeks of therapy ([2]; 17 dogs): 7 | median TTP, all dogs ([2]; 17 dogs): 35 days | stable disease (SD), number of dogs with NHL ([2]; SD for greater than 28 days): 7 | stable disease (SD), number of dogs ([2]; all 17 dogs): 8 | dose at which biologic activity was observed ([2]; lowest dose level): 1 mg/kg
